The text below walks through data of PubChem BioAssay AID504655 (Southern Research Specialized Biocontainment Screening …, 2011).

Active and inactive are the calls of the source. How the calls were made is not given here.

In the experiment the test system is HEp-2 cells, RSV CPE inhibition, cell viability. In words: protection of HEp-2 cells from RSV – synthesized compounds, set 7, dose response (AID 504655).
Regarding `COCCNC(=O)c1ccc(Cn2c(=O)c3ccccc3n(Cc3ccc(C)cc3)c2=O)cc1`, the IC50 (as a rule, the point on the concentration scale where inhibition reaches its midpoint) was 3.05 µM.

With `Cc1ccc(CNC(=O)C2CCN(S(=O)(=O)c3cccc4nonc34)CC2)c(C)c1`, the IC50 was > 50 µM (inactive).

On to `Cc1ccc(Cn2c(=O)n(Cc3ccc(C(=O)NCc4ccccc4)cc3)c(=O)c3ccccc32)cc1`, for which the IC50 is > 50 µM (inactive).

As for `CNC(=O)c1ccc(Cn2c(=O)c3ccccc3n(Cc3ccc(C)cc3)c2=O)cc1`, the IC50 was 2.26 µM.

With `COc1ccccc1NC(=O)[C@@H]1CCCN1S(=O)(=O)c1cccc2nonc12`, the IC50 is > 50 µM (inactive).

Regarding `COCCCNC(=O)c1ccc(Cn2c(=O)c3ccc(OC)cc3n(Cc3ccc(C)cc3)c2=O)cc1`, the IC50 was > 50 µM (inactive).

In the case of `O=C(NCc1cccc(Cl)c1)C1CCN(S(=O)(=O)c2cccc3nonc23)CC1`, the IC50 is > 50 µM (inactive).

In the case of `Cc1ccc(Cn2c(=O)n(Cc3ccc(C(=O)Nc4ccccc4)cc3)c(=O)c3ccccc32)cc1`, the IC50 was > 50 µM (inactive).

Regarding `Cc1ccc(Cl)cc1NC(=O)[C@@H]1CCCN1S(=O)(=O)c1cccc2cccnc12`, the IC50 was 6.11 µM.

`O=C(NCc1ccc(Cl)cc1)C1CCN(S(=O)(=O)c2cccc3nonc23)CC1`: the IC50 is > 50 µM (inactive).

`COCCCNC(=O)c1ccc(Cn2c(=O)c3ccc(C)cc3n(Cc3ccc(C)cc3)c2=O)cc1`: the IC50 is > 50 µM (inactive).

With `COc1ccc(C)c(NC(=O)[C@@H]2CCCN2S(=O)(=O)c2cccc3cccnc23)c1`, the IC50 was 9.33 µM.

Regarding `Cc1ccc(Cn2c(=O)n(Cc3ccc(C(=O)N4CCCCC4)cc3)c(=O)c3ccccc32)cc1`, the IC50 was > 50 µM (inactive).

As to `Cc1ccc(Cn2c(=O)n(Cc3ccc(C(=O)N(C)C)cc3)c(=O)c3ccccc32)cc1`, the IC50 was > 50 µM (inactive).

For `Cc1ccc(NC(=O)[C@@H]2CCCN2S(=O)(=O)c2cccc3nonc23)c(C)c1`, the IC50 was > 50 µM (inactive).

For `COCCCNC(=O)c1ccc(Cn2c(=O)c3ccc(C(F)(F)F)cc3n(Cc3ccc(C)cc3)c2=O)cc1`, the IC50 is > 50 µM (inactive).

For `COc1ccccc1CNC(=O)[C@@H]1CCCN1S(=O)(=O)c1cccc2nonc12`, the IC50 is > 50 µM (inactive).

Regarding `Cc1ccc(Cn2c(=O)n(Cc3ccc(C(=O)N4CCOCC4)cc3)c(=O)c3ccccc32)cc1`, the IC50 is > 50 µM (inactive).

Regarding `Cc1ccc(Cn2c(=O)n(Cc3ccc(C(=O)N4CCCC4)cc3)c(=O)c3ccccc32)cc1`, the IC50 was > 50 µM (inactive).

With `Cc1ccc(Cn2c(=O)n(Cc3ccc(C(=O)NC4CCCCC4)cc3)c(=O)c3ccccc32)cc1`, the IC50 was > 50 µM (inactive).
